Data reported in the supplement of paper PMC10307832.

Tests used:
Assay in all cases: relative viability (nuclei count vs DMSO), 5 days (fraction); higher = more cells survive
[1] = compound: C(C(=O)C(=O)O)Br [Bromopyruvate] + CC(=O)c1c(C)c2cnc(Nc3ccc(N4CCNCC4)cn3)nc2n(C2CCCC2)c1=O [Palbociclib] (partner 0.5 µM)
In short: (§1)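 Cells from lung cancer lines were seeded into 1536-well plates and, one day later, dosed by pin tool. Treatments were either a single drug or a fixed dose of an anchor drug with five library-drug doses (not always all listed) in √10 steps. After 5 days, nuclei were stained in a one-step fixation (final 0.05% Triton X-100, 1% formaldehyde, 1 ug/ml Hoechst) and counted on 4× images, and relative viability is the treated-to-vehicle nuclei ratio, as the median of duplicate plates.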

[2] = compound: C(C(=O)C(=O)O)Br [Bromopyruvate] + CC1(C)CCC(c2ccc(Cl)cc2)=C(CN2CCN(c3ccc(C(=O)NS(=O)(=O)c4ccc(N[C@H](CCN5CCOCC5)CSc5ccccc5)c(S(=O)(=O)C(F)(F)F)c4)cc3)CC2)C1 [Navitoclax] (partner 0.5 µM)
In short: as §1

[3] = compound: CC(O)(CS(=O)(=O)c1ccc(F)cc1)C(=O)Nc1ccc(C#N)c(C(F)(F)F)c1 [Bicalutamide] + C[C@@H](Oc1cc(-c2cnn(C3CCNCC3)c2)cnc1N)c1c(Cl)ccc(F)c1Cl [Crizotinib] (partner 1 µM)
In short: as §1

[4] = compound: CC(O)(CS(=O)(=O)c1ccc(F)cc1)C(=O)Nc1ccc(C#N)c(C(F)(F)F)c1 [Bicalutamide] + C[C@]1(O)C[C@@H](c2nc(-c3ccc4ccc(-c5ccccc5)nc4c3)c3c(N)nccn32)C1 [Linsitinib] (partner 1 µM)
In short: as §1

Cell Line	relative viability ([1]; first compound 1 µM)	relative viability ([1]; first compound 3.162 µM)	relative viability ([1]; first compound 10 µM)	relative viability ([1]; first compound 31.62 µM)	relative viability ([1]; first compound 100 µM)	relative viability ([2]; first compound 1 µM)	relative viability ([2]; first compound 3.162 µM)	relative viability ([2]; first compound 10 µM)	relative viability ([2]; first compound 31.62 µM)	relative viability ([2]; first compound 100 µM)	relative viability ([3]; first compound 0.08 µM)	relative viability ([3]; first compound 0.253 µM)	relative viability ([3]; first compound 0.8 µM)	relative viability ([3]; first compound 2.53 µM)	relative viability ([4]; first compound 0.08 µM)	relative viability ([4]; first compound 0.253 µM)	relative viability ([4]; first compound 0.8 µM)	relative viability ([4]; first compound 2.53 µM)
NCI-H2347	0.44	0.493	0.399	0.405	0.448	0.714	0.742	1.13	0.553	0.778	0.797	0.621	0.689	0.675	1.1	0.944	1.02	0.934
NCI-H2405	0.51	0.53	0.549		0.458	0.903	0.94	0.971	0.774	1.15	0.913	0.817	0.962	0.837	0.897	0.873	1.06	0.901
NCI-H3122	0.167	0.202	0.197	0.178	0.13	1.03	0.974	1.08	1.01	1.03	0.281	0.26	0.277	0.281	1.01	1.04	1.04	1.07
PC-3 [JPC-3]	0.548		0.537		0.536	0.751	0.811	0.838	0.727	0.828	1.02	1.07	1.06	1.02	0.927	1.02	0.986	1.02
PC-14	0.577	0.538	0.686	0.573	0.411	1.02	1.02	1.07	1.02	1.01	0.958	0.972	0.899	0.904	0.968	0.967	0.976	1.04
RERF-LC-KJ	1.04	1.18	1.19	1.14	0.966	1.05	0.822	1.05	0.868	0.98	0.874	0.849	0.872	0.855	0.868	0.85	0.94	0.904
SK-LU-1	0.372	0.363	0.365	0.346	0.428	0.866	0.971	0.935	0.734	0.574	0.936	0.967	1.08	0.854	1.24	1.29	1.17	0.817
SK-MES-1	0.352	0.344	0.29	0.32	0.319	1.1	1.25	1.17	1.29	1.26	1.03	0.902	1.02	1.01	1.14	1.07	1.07	1.04
SW 1573	0.401	0.395	0.373	0.266	0.0467	0.927	1.17	1.02	1.11	0.487	0.972	0.761	1.08	0.721	0.834	0.647	0.887	0.647
